Measured values from patent publication US11213513B2, “Compositions and methods for promoting hair growth with Mpc1 inhibitors” (The Regents of the University of California, priority 2017, dated 2022).
Entries after “also recorded” stand apart in the source; their conditions may differ.

How the values were obtained:
Type in all cases: in vivo, mouse
[1] = tested on: Ldh; assay: In situ Ldh enzyme activity assay in epidermis of topically treated animals; details: in situ stain
Source text: (§1) Animals were acquired from Jackson Labs (K15-CrePR, Lgr5-CreER and Lgr6-CreER), Rutter Lab (Mpc^fl/fl) and Seth Lab (Ldha^fl/fl) (Xie, H. et al., Cell Metab., 19, 795-809 (2014)) and maintained under conditions set forth by IUCUC and ARC. For experiments that include analysis of the telogen stage of the hair cycle, animals were harvested at post-natal day 50, for telogen-anagen transition animals were harvested at day 70, and for anagen animals were harvested at post-natal day 90. For experiments that include analysis of transgenic animals, K15-CrePR animals were shaved and treated by intraperitoneal injections of mifepristone and Lgr5-CreER and Lgr6-CreER animals were shaved and treated with tamoxifen (10 mg/ml dissolved in sunflower seed oil, 2 mg per day for 3 days) during telogen (post-natal day 50), and monitored for hair regrowth following shaving. Phenotypes shown from treated animals were produced 3-4 weeks after mifepristone administration. For FIG. 3, wildtype C57BL/6J animals were shaved at post-natal day 50 and treated topically with Transderma PLO Gel (premium lecithin organogel), PLO Gel Ultramax Base (TR220) (vehicle), or the compound of formula (I) (Compound (I)) (20 μM) (Sigma Aldrich product PZ0160) for indicated periods of time. […]

[2] = tested on: 17 month old mice; assay: Treatment of elderly (17 month old) shaved mice, hair coat re-growth; details: 20 uM in PLO gel every other day, up to 30 days after shaving; DMSO control patchy
Description: 17 month old mice were shaved and treated every other day with DMSO or 20 uM of the compound of formula (I) diluted in PLO gel (pluronic lecithin organogel). Images were acquired at the indicated day after shaving and carried out for 30 days.

[3] = tested on: wildtype C57BL/6J animals; assay: Topical treatment of shaved telogen (day 50) mice, monitoring pigmentation, hair growth and hair cycle
Source text: Animals were acquired from Jackson Labs (K15-CrePR, Lgr5-CreER and Lgr6-CreER), Rutter Lab (Mpc^fl/fl) and Seth Lab (Ldha^fl/fl) (Xie, H. et al., Cell Metab., 19, 795-809 (2014)) and maintained under conditions set forth by IUCUC and ARC. For experiments that include analysis of the telogen stage of the hair cycle, animals were harvested at post-natal day 50, for telogen-anagen transition animals were harvested at day 70, and for anagen animals were harvested at post-natal day 90. For experiments that include analysis of transgenic animals, K15-CrePR animals were shaved and treated by intraperitoneal injections of mifepristone and Lgr5-CreER and Lgr6-CreER animals were shaved and treated with tamoxifen (10 mg/ml dissolved in sunflower seed oil, 2 mg per day for 3 days) during telogen (post-natal day 50), and monitored for hair regrowth following shaving. Phenotypes shown from treated animals were produced 3-4 weeks after mifepristone administration. For FIG. 3, wildtype C57BL/6J animals were shaved at post-natal day 50 and treated topically with Transderma PLO Gel ([…] lecithin organogel), PLO Gel Ultramax Base (TR220) (vehicle), or the compound of formula (I) (Compound (I)) (20 μM) (Sigma Aldrich product PZ0160) for indicated periods of time. Both male and female animals were used in this study in approximately equal numbers with no apparent difference in phenotype between genders. All phenotypes described are representative of a minimum of n=3 littermate pairs as indicated in the description of each experiment. No statistical measure was used to determine the sample size beforehand, nor were statistics used to measure effects, as the results were essentially positive or negative as represented in the figures. The results described include data from all treated animals. The investigators were not blinded to allocation during the experimental data collection, nor were the experiments randomized. The results shown were representative images from at least three independently treated animals, and genotyping was performed both before and after animal treatment for confirmation.
Tissues were isolated from the indicated genotypes and embedded fresh in optimal cutting temperature (OCT) compound for frozen tissue preparations, or fixed overnight in 4% formalin and embedded in paraffin. For frozen tissue, sectioning was performed on a Leica 3200 Cryostat, and fixed for 5 minutes in 4% paraformaldehyde. Paraffin embedded tissue was sectioned, de-paraffinized, and prepared for histology. All sections prepared for staining were blocked in staining buffer containing appropriate control IgG (Goat, Rabbit etc.). Immunohistochemistry was performed on formalin-fixed paraffin-embedded tissue with citrate or Tris buffer antigen retrieval with the following antibodies: Ki67 (Abcam ab16667, 1:50), p-S6 (Cell Signaling CST2215, 1:50), Sox9 (Abcam ab185230, 1:1000), Ldha (Abcam ab47010, 1:100), Ldh (Abcam ab125683, 1:100), p-Stat3 (Abcam ab68153, 1:200), p-Stat1 (Abcam ab109461, 1:200), p-Stat5 (Abcam ab32364; 1:50), Gli3 (Abcam ab6050; 1:100), β-catenin (Abcam ab32572; 1:500). The DAKO EnVision+ HRP Peroxidase System (Dako K400911-2) and Dako AEC Substrate Chromogen (Dako K346430-2) was used for detection. Images were collected on an Olympus BX43 Upright Microscope and Zeiss Model Axio Imager M1 Upright Fluorescence Microscope. Protein samples for western blots and enzymatic assays were extracted from FACS sorted epidermal populations in RIPA lysis buffer (Pierce) with Halt protease and phosphatase inhibitors (Thermo-Fisher) and precipitated in acetone for concentration. The following antibodies were used: β-actin (Abcam ab8227; 1:1000), β-actin (Santa Cruz sc-47778; 1:1000), C-Myc (Abcam ab32072; 1:1000), N-Myc (Santa Cruz sc-53993; 1:200), H3K27Ac (Abcam ab177178; 1:200), Mpc1 (Sigma HPA045119).
Both male and female animals were used in this study in approximately equal numbers with no apparent difference in phenotype between genders. […]

[4] = tested on: HFSCs; assay: Metabolomic analysis (LC-MS) of lactate in HFSCs sorted from topically treated skin
Source text: as §1, with “administration.” for “administration. For FIG. 3, wildtype C57BL/6J animals were shaved at post-natal day 50 and treated topically with Transderma PLO Gel (premium lecithin organogel), PLO Gel Ultramax Base (TR220) (vehicle), or the compound of formula (I) (Compound (I)) (20 μM) (Sigma Aldrich product PZ0160) for indicated periods of time.”
Whole dorsal and ventral mouse skin were excised and floated on trypsin (0.25%) for 1 h at 37° C. or overnight at 4° C. […] The cells were then filtered through a […] cell strainer and stained for fluorescence-activated cell sorting (FACS) processing with CD34 Monoclonal Antibody (RAM34), FITC, eBioscience™ (Catalog #:11-0341-82) and CD49d (Integrin alpha 4) Monoclonal Antibody (R1-2), PE, eBioscience™ (Catalog #: 12-0492-81). […]

[5] = topical treatment of animals in telogen (day 50)

## N#CC(=Cc1cn(-c2ccccc2)c2ccccc12)C(=O)O [compound of formula (I)]
[1]; topical application for 48 hours during telogen
  Ldh enzyme activity in interfollicular epidermis: increased Ldh activity in the interfollicular epidermis; also recorded: also seen in interfollicular epidermis
[1]; topically treated animals
  Ldh enzyme activity in HFSCs: strong activity in HFSCs
[2]
  hair coat re-growth in aged mice: more complete re-growth; also recorded: more complete hair growth
[3]; [5]
  effect on proliferation of the interfollicular epidermis: minor hyperproliferation of the interfollicular epidermis
  effect on the hair cycle: robust acceleration of the hair cycle
[3]; topical, 20 μM
  time of treatment to full anagen, indicated by full coat of hair: 14 days
[3]; topical, 20 μM, vehicle animals remained in telogen
  skin pathology: anagen entry (down growth of the follicle and hypodermal thickening): entered an accelerated anagen at 8 weeks
[3]; topical, 20 μM, vehicle control showed none even after 12 days
  time of treatment to pigmentation and hair growth, indicative of entry into anagen: 8 days
[3]; topical, at least 6 pairs of animals, vehicle vs compound
  time to beginning of hair cycle acceleration (time to observed phenotype): 3 to 5 days
[4]; 48-72 hours of treatment
  lactate levels, replicate experiment: increase in lactate levels
[4]; topical application, 48 hours
  total levels of lactate in sorted HFSCs: increases total levels of lactate
